# Measurements published in patent US6677302B2, “Compositions and methods for the treatment of viral disorders” (The Trustees of Boston University, priority 1996, dated 2004).
# Marks after values point to notes of the source that are not given here.
# What was measured:
# [1] = system: MCF-7 (breast cancer); test: Survival fraction after 72 hours exposure (MTT assay); format: cell-based, human
# Procedure: (§1) Growth inhibition was measured by the MTT assay. Survival fraction is calculated from at least 3 experiments, and differences in survival fraction are statistically significant P<0.05, using the Paired Two-Sample For Means T-Test. […] PC-3=prostate cancer; A549=non-small cell cancer; OvCar=ovarian cancer; CaCo=colon cancer; MCF-7=breast cancer; and SW900=non-small cell lung cancer.
# [2] = system: OvCar (ovarian cancer); test: as above; format: cell-based, human
# Procedure: as §1
# [3] = system: PC-3 (prostate cancer); test: as above; format: cell-based, human
# Procedure: as §1
# [4] = system: SW900 (non-small cell lung cancer); test: as above; format: cell-based, human
# Procedure: as §1
# [5] = system: A549 (non-small cell cancer); test: as above; format: cell-based, human
# Procedure: (§2) Growth inhibition was measured by the MTT assay. […] PC-3=prostate cancer; A549=non-small cell cancer; OvCar=ovarian cancer; CaCo=colon cancer; MCF-7=breast cancer; and SW900=non-small cell lung cancer.
# [6] = system: CaCo (colon cancer); test: as above; format: cell-based, human
# Procedure: as §2
# [7] = system: EBV-TK MRNA; test: EBV-TK mRNA dose response experiments; format: cell-based; settings: in vitro
# Procedure: In vitro, peaks induction of EBV-TK plateaus at serum level of around 1 mM. […] Therefore, dose levels up to 2,000 mg/kg/day, were evaluated in an attempt to reach serum levels of 1 mM. Treatment cycles were of 4 week duration, with 3 weeks on treatment and one week off. Patients were given the standard dose of GCV throughout each 21 day course of arginine butyrate, starting, however, on day 0. Arginine butyrate was given by continuous IV infusion at 500 mg/kg/day for 2 days, at 1,000 mg/kg/day for 2 days, at 1,500 mg/kg/day for 2 days, and thereafter at 2,000 mg/kg/day, or as tolerated, for the rest of the 21 day course. Cycle 2 was begun on Day 29. Patients were given a complete tumor evaluation after every course with subsequent cycles emitted unless disease progressed.
# In some experiments sodium was used instead of arginine to neutralize butyric acid. In dose response experiments, levels of EBV-TK MRNA plateaus at around 1 mM to 3 mM sodium butyrate, inducing levels essentially equivalent to those induced by 1 mM arginine butyrate. […] Similarly, levels of GCV above 30 μM were generally cytocidal to both to EBV+ and EBV− cell lines. Cell lines used were X50-7, a latent EBV+ B-cell lymphoma; Akata, a producer EBV+ Burkitt's lymphoma; HPB-ALL, a T-cell line; and Nalm-6, an EBV− B-cell line. […]
# [8] = Stability testing of arginine butyrate solution; format: physicochemical; settings: solution for injection
# Text: Butyric acid is a short chain fatty acid present in foods such as dairy products. Arginine is an amino acid which is commonly used in hyperalimentation solutions in hospitals throughout the country. Butyric acid was obtained from Aldrich, catalog number W-212. L-Arginine is anhydrous. Arginine was combined with butyric acid, pH 5.0-5.5, in sterile, non-pyrogenic water for injection to neutralize the fatty acid. The solution was filtered through a Millipore System at a final concentration for injection of 100 mg/ml or 25 mg/ml. Each lot was pyrogen tested and tested for sterility and purity. […] Since 10% arginine butyrate solution is hypertonic (100 mg/ml), it must be infused through a long or deep IV access to avoid peripheral venous irritation. Arginine butyrate was infused via an infusion pump. European pharmacokinetic studies of arginine butyrate given as a “slow” and 90 minute bolus of 500 mls of a 5% solution (2.5 g/M in two normal volunteers, and found a 15 minute elimination period. Plasma levels from patients with hemoglobinopathies have shown that butyric acid disappears within 5 to 15 minutes after an infusion of up to 2,000 mg/kg/day.
# [9] = system: Gastric Carcinoma (AGS); test: Differentiation of tumor cell line; format: cell-based, human
# Procedure: The effects of arginine butyrate compounds on differentiation of several human tumor cell lines were evaluated by visual inspection and by histochemical and pathological staining:
# Although HLA antigens are expressed on normal, fully differentiated cells, they are not expressed or are minimally expressed on most neoplastic cells. In this way neoplastic cells escape recognition by the cellular arm of the immune system and are able to survive.
# [10] = system: human malignant cell lines from breast, colon, lung, prostate, ovarian and lymphoid sources; test: Cytotoxicity as single agent, cell death at 72 hours; format: cell-based; settings: all concentrations tested
# [11] = system: HIV p24 in co-cultures of human PBMC and Ci11; test: HIV p24 production, radio-immuno assay; format: cell-based; settings: 72 hours post-cultivation; FIG. 13
# Text: The effect of arginine butyrate on HIV p24 production could be easily studied in co-cultures of human PBMC and Ci11, an HIV infected cell line. […] Despite these encouraging results with a more direct assay than those published previously, the potential risks to HIV+ patients of treatment with arginine butyrate have not been evaluated as these patients were excluded from the protocol (FIG. 13). HIV p24 levels assessed by radio-immuno assay.
# [12] = system: IL-2 receptor; test: Expression of the IL-2 receptor; format: cell-based
# Text: The IL-2 receptor is a target for therapies currently under development. For example, antibodies directed to the IL-2 receptor and conjugated to a toxin, are currently being tested in the clinic, and IL-2, itself conjugated to a toxin, is currently being tested in the clinic. […] This increased expression might potentiate the therapies under development.
# [13] = Table 3, 0.5 AB (0.5 mM), 72 hours
# [14] = Table 4, 0.5 AB (0.5 mM), 72 hour
substance,measurement,setting,value
arginine butyrate,Survival Fraction,"[1]; Table 4, 0.5 AB (0.5 mM)",0.74*
same,Survival Fraction,"[1]; Table 4, .05 AB",0.89*
same,Survival Fraction,[2]; [13],0.86**
same,Survival Fraction,[2]; [14],0.88*
same,Survival Fraction,"[2]; Table 4, .05 AB, 72 hour",0.96
same,Survival Fraction,[3]; [13],0.67*
same,Survival Fraction,[3]; [14],0.74*
same,Survival Fraction,"[3]; Table 4, .05 AB, 72 hour",0.82*
same,Survival Fraction,"[4]; Table 4, 0.5 AB (0.5 mM)",0.92
same,Survival Fraction,"[4]; Table 4, .05 AB",0.95
same,Survival Fraction,[5]; [13],0.92
same,Survival Fraction,[5]; [14],0.76*
same,Survival Fraction,"[5]; Table 4, .05 AB, 72 hour",0.71*
same,Survival Fraction,"[6]; Table 3, 1.0 AB (1.0 mM), 72 hours",0.60*
same,Survival Fraction,[6]; [14],0.67*
same,Survival Fraction,"[6]; Table 4, .05 AB, 72 hour",0.81*
same,level at which peak induction of EBV-TK plateaus,[7],around 1 mM
same,stability in glass containers,[8],up to 404 days
same,differentiation marker expression,[9],began to express mucin
same,concentrations at which cell death at 72 hours was seen,[10],0.1 to 5.0 mM
same,HIV p24 production,[11],significant decrease in p24 production
same,IL-2 receptor expression,[12],increase expression of the IL-2 receptor
